Data as given in ChEMBL document CHEMBL1135556, “alpha-bromoacetophenone derivatives as neutral protein tyrosine phosphatase inhibitors: structure-Activity relationship” (Bioorg Med Chem Lett, 2002).
pKi: −log10 of the molar value.

Experiments:
[1] = target: T1, Tyrosine-protein phosphatase non-receptor type 1 (Homo sapiens) (UniProt P18031); experiment: First-order rate constant (K inact) for conversion of the ExI complex (SHP 1 receptor -inhibitor complex) into the covalent adduct, EI was determined using PNP as substrate
T1 sequence (whole entry): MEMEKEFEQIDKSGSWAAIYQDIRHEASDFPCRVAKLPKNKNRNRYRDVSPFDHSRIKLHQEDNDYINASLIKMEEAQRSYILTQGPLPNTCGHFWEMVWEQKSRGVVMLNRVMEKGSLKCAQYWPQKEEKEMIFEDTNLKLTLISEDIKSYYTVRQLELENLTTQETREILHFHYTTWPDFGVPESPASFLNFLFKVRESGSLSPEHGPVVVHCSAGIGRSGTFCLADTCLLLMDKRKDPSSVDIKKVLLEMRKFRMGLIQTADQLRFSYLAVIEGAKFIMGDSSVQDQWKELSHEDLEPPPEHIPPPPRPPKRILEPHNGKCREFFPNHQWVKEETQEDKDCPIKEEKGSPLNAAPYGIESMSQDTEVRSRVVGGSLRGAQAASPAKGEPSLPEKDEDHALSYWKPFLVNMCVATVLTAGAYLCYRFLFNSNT

[2] = target: Tyrosine-protein phosphatase non-receptor type 6, SHP-1 (Homo sapiens) (UniProt P29350); experiment: Ratio between dissociation constant and First-order rate constant (K inact / Ki) was determined
[3] = target: Tyrosine-protein phosphatase non-receptor type 6, SHP-1 (Homo sapiens) (UniProt P29350); experiment: Dissociation constant towards SHP-1 receptor-inhibitor complex was determined using PNP as substrate
[4] = target: Tyrosine-protein phosphatase non-receptor type 6, SHP-1 (Homo sapiens) (UniProt P29350); experiment: First-order rate constant (K inact) for conversion of the ExI complex (SHP-1 -inhibitor complex) into the covalent adduct, EI was determined using PNP as substrate
[5] = target: Tyrosine-protein phosphatase non-receptor type 6, SHP-1 (Homo sapiens) (UniProt P29350); experiment: Dissociation constant towards SHP 1 receptor-inhibitor complex was determined using PNP as substrate
[6] = target: Tyrosine-protein phosphatase non-receptor type 6, SHP-1 (Homo sapiens) (UniProt P29350); experiment: First-order rate constant (K inact) for conversion of the ExI complex (SHP 1 protein -inhibitor complex) into the covalent adduct, EI was determined using PNP as substrate
[7] = target: T2, Tyrosine-protein phosphatase non-receptor type 6 (Homo sapiens, UniProt P29350); experiment: Dissociation constant towards SHP 1 receptor-inhibitor complex was determined using PNP as substrate
[8] = target: T2, Tyrosine-protein phosphatase non-receptor type 6

Sequence of Tyrosine-protein phosphatase non-receptor type 6, SHP-1 (Homo sapiens) (P29350 whole entry, looked up): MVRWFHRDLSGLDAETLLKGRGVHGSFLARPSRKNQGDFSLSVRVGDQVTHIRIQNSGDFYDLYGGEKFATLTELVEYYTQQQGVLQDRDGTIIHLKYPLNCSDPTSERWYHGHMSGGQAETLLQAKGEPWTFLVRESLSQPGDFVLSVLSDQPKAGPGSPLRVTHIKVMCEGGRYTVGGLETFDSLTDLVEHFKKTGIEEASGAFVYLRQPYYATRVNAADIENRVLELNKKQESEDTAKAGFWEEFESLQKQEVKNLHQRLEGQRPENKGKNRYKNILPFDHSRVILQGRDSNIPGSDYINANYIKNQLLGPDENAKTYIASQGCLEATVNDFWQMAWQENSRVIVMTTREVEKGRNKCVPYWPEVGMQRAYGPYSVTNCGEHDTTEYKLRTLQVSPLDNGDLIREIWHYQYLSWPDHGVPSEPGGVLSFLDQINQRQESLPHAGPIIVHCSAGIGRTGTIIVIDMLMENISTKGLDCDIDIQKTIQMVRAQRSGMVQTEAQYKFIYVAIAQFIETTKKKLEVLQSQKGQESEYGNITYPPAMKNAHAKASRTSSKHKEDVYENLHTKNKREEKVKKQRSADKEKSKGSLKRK
T2 sequence (P29350 whole entry): as the sequence (P29350 whole entry, looked up) above

SMILES | kinact [1] [min⁻¹] | Ratio [2] [M⁻¹ min⁻¹] | pKi [3] | kinact [4] [min⁻¹] | pKi [5] | kinact [6] [min⁻¹] | pKi [7] | kinact [8] [min⁻¹]
N=C(N)NCCCC(NC(=O)[C@H](CCCNC(=N)N)NC(=O)CNC(=O)COc1ccc(C(=O)CBr)cc1)C(=O)O (some centres not stated) | 4.8 | 6300 | – | – | – | – | – | –
O=C(CBr)c1ccccc1 | – | 7100 | 4.09 | 0.58 | – | – | – | –
O=C(CCl)c1ccc(F)cc1 | – | 580 | 3.42 | 0.22 | – | – | – | –
O=C(CBr)c1ccc(C(F)(F)F)cc1 | – | 26000 | 4.85 | 0.37 | – | – | – | –
O=C(CBr)c1ccc(O)cc1 | – | 9300 | 4.37 | 0.4 | – | – | – | –
NC(N)=NCCCC(NC(=O)[C@H](CCCN=C(N)N)NC(=O)CNC(=O)COc1ccc(C(=O)CBr)cc1)C(=O)O (some centres not stated) | – | – | – | – | 3.12 | – | – | –
O=C(CBr)c1cccc2ccccc12 | – | 9400 | 4.04 | 0.86 | – | – | – | –
O=C(O)COc1ccc(C(=O)CBr)cc1 | – | 9300 | – | – | 3.71 | 1.8 | – | –
O=C(CCl)c1ccc(O)c(O)c1 | – | 420 | 2.85 | 0.59 | – | – | – | –
O=C(O)CCC(NC(=O)[C@H](CCC(=O)O)NC(=O)CNC(=O)COc1ccc(C(=O)CBr)cc1)C(=O)O (some centres not stated) | – | – | 5.55 | 1.2 | – | – | 4.54 | 6.6
O=C(CCl)c1ccc(F)cc1F | – | 120 | 1.76 | 2.1 | – | – | – | –
O=C(CBr)c1ccc2ccccc2c1 | – | 20000 | 4.60 | 0.48 | – | – | – | –
O=C(CBr)c1ccc(-c2ccccc2)cc1 | – | 41 | 4.85 | 0.59 | – | – | – | –
O=C(CBr)c1ccc(F)cc1 | – | 9100 | 4.25 | 0.51 | – | – | – | –
O=C(O)COc1ccc(C(=O)CCl)cc1 | – | 710 | 2.60 | 1.8 | – | – | – | –
O=C(CBr)c1ccc(-c2ccccc2C(=O)O)cc1 | – | 4550 | – | – | 3.66 | 1 | – | –
O=C(CCl)c1ccccc1 [PHENACYL CHLORIDE] | – | 430 | 3.32 | 0.21 | – | – | – | –
O=C(CBr)c1ccccn1 | – | 7500 | 3.76 | 1.3 | – | – | – | –
